In US5910479A, “Method for the treatment of Streptococcus pneumoniae infection” (priority 1996, dated 1999):
≈ marks a conversion by molar mass, not a printed value.

Key:
[1] = system: Streptococcus pneumoniae Felton; assay: Mouse i.p. infection model (septicemia), survival; format: in vivo; conditions: mice; for Survivors (%) / Survivors/total: twice
Procedure: Mouse i.p. infection model. Staphylococcus aureus Smith was grown in veal infusion broth and each mouse was infected intraperitoneally with 10^6 colony-forming units (CFU), diluted in broth containing 5% (w/v) Difco bacteriological mucin. Streptococcus pneumoniae Felton strain was grown in Difco Brain Heart Infusion broth (BHI) and each mouse was infected intraperitoneally with 10^3 CFU, diluted in BHI. Mice were divided into groups of 5. […] Other groups of mice received different dosages of nisin. Nisin was administered either intravenously (via the tail vein in. 0.1 ml of 5% dextrose for injection) or subcutaneously (in 0.2 ml). Two injections were given to each mouse, the first within 10 minutes after infection and the second after 5 hours. […] Different dosages of vancomycin or penicillin were administered i.v. in 0.1 ml of 5% glucose for injection.

[2] = system: S. pneumoniae; conditions: strain of S. pneumoniae used; reported by Goldstein et al.; cited from earlier work

In the case of `CC1(C)S[C@@H]2[C@H](NC(=O)Cc3ccccc3)C(=O)N2[C@H]1C(=O)O` [penicillin], the “Efficacy compared with the other agents (in words)” value ([1]; i.v.) is reported as “less efficacious than nisin”, the “Survivors (%)” value ([1]; i.v., 0.5 mg/kg/dose) is reported as 0% and the Survivors/total ([1]; i.v., 0.5 mg/kg/dose) is reported as 0/5. For the same compound, the “Survivors (%)” value ([1]; i.v., 1 mg/kg/dose) was 20%, the Survivors/total ([1]; i.v., 1 mg/kg/dose) was 1/5 and the “Survivors (%)” value ([1]; i.v., 2 mg/kg/dose) was 20%. The Survivors/total ([1]; i.v., 2 mg/kg/dose) was 1/5, the “Survivors (%)” value ([1]; i.v., 4 mg/kg/dose) was 60% and the Survivors/total ([1]; i.v., 4 mg/kg/dose) was 3/5. For the same compound, the “Survivors (%)” value ([1]; i.v., 8 mg/kg/dose) was 20%, the Survivors/total ([1]; i.v., 8 mg/kg/dose) was 1/5 and the “Survivors (%)” value ([1]; i.v., 16 mg/kg/dose) was 80%. The Survivors/total ([1]; i.v., 16 mg/kg/dose) was 4/5 and the MIC [2] was 0.016 µg/mL (≈ 0.0478 µM).
In the case of `CN[C@H](CC(C)C)C(=O)N[C@H]1C(=O)N[C@@H](CC(N)=O)C(=O)N[C@H]2C(=O)N[C@H]3C(=O)N[C@H](C(=O)N[C@H](C(=O)O)c4cc(O)cc(O)c4-c4cc3ccc4O)[C@H](O)c3ccc(c(Cl)c3)Oc3cc2cc(c3O[C@@H]2O[C@H](CO)[C@@H](O)[C@H](O)[C@H]2O[C@H]2C[C@](C)(N)[C@H](O)[C@H](C)O2)Oc2ccc(cc2Cl)[C@H]1O` [vancomycin], the “Efficacy compared with the other agents (in words)” value ([1]; i.v.) is reported as “less efficacious than nisin”, the “Survivors (%)” value ([1]; i.v., 1 mg/kg/dose) is reported as 40% and the Survivors/total ([1]; i.v., 1 mg/kg/dose) is reported as 2/5. For the same compound, the “Survivors (%)” value ([1]; i.v., 2 mg/kg/dose) was 60%, the Survivors/total ([1]; i.v., 2 mg/kg/dose) was 3/5 and the “Survivors (%)” value ([1]; i.v., 4 mg/kg/dose) was 80%. For the same compound, the Survivors/total ([1]; i.v., 4 mg/kg/dose) was 4/5, the “Survivors (%)” value ([1]; i.v., 8 mg/kg/dose) was 100% and the Survivors/total ([1]; i.v., 8 mg/kg/dose) was 5/5. The “Survivors (%)” value ([1]; i.v., 16 mg/kg/dose) was 100%, the Survivors/total ([1]; i.v., 16 mg/kg/dose) was 5/5 and the “Survivors (%)” value ([1]; i.v., 32 mg/kg/dose) was 100%. For the same compound, the Survivors/total ([1]; i.v., 32 mg/kg/dose) was 5/5, the “Survivors (%)” value ([1]; s.c., 2 mg/kg/dose) was 60% and the Survivors/total ([1]; s.c., 2 mg/kg/dose) was 3/5. For the same compound, the “Survivors (%)” value ([1]; s.c., 4 mg/kg/dose) was 60% and the Survivors/total ([1]; s.c., 4 mg/kg/dose) was 3/5.
